Common to all, as to format: in vivo
The test system of one assay is Chilo suppressalis. In words: Example B4: Chilo suppressalis (Striped Rice Stemborer). The note with it: 144 h, application rate of 200 ppm, artificial diet, L2 larvae, 6 days after infestation, read-out: control in at least one of the three categories (mortality, anti-feedant or growth inhibition). The protocol: Example B4: Chilo suppressalis (Striped Rice Stemborer)
24-well microtiter plates with artificial diet were treated with aqueous test solutions prepared from 10′000 ppm DMSO stock solutions by pipetting. After drying, the plates were infested with L2 larvae (6-8 per well). The samples were assessed for mortality, anti-feeding effect, and growth inhibition in comparison to untreated samples 6 days after infestation. Control of Chilo suppressalis by a test sample is given when at least one of the categories mortality, anti-feedant effect, and growth inhibition is higher than the untreated sample.

Assay [1] has as its system Plutella xylostella. Put plainly: Example B5: Plutella xylostella (Diamond Back Moth). The note with it: 192 h, application rate of 200 ppm, 24-well artificial diet, eggs, 8 days after infestation, read-out: control in at least one of the two categories (mortality or growth inhibition). On the procedure:
Example B5: Plutella xylostella (Diamond Back Moth)
24-well microtiter plates with artificial diet were treated with aqueous test solutions prepared from 10′000 ppm DMSO stock solutions by pipetting. After drying, Plutella eggs were pipetted through a plastic stencil onto a gel blotting paper and the plate was closed with it. The samples were assessed for mortality and growth inhibition in comparison to untreated samples 8 days after infestation.

For a further assay, the system named is Spodoptera littoralis. Put plainly: Example B9: Spodoptera littoralis (Egyptian Cotton Leaf Worm), cotton leaf disc spray. The note with it: foliar, 72 h, application rate of 200 ppm, sprayed cotton leaf discs, L1 larvae, 3 days after infestation, read-out: control in at least one of the three categories (mortality, anti-feedant or growth inhibition).
A further assay relates to Diabrotica balteata. In words: Example B1: Diabrotica balteata (Corn Root Worm). The note with it: 96 h, application rate of 200 ppm, sprayed maize sprouts, L2 larvae, 4 days after infestation, read-out: control in at least one of the two categories (mortality or growth inhibition). The protocol: Example B1: Diabrotica balteata (Corn Root Worm)
Maize sprouts placed onto an agar layer in 24-well microtiter plates were treated with aqueous test solutions prepared from 10′000 ppm DMSO stock solutions by spraying. After drying, the plates were infested with L2 larvae (6 to 10 per well). The samples were assessed for mortality and growth inhibition in comparison to untreated samples 4 days after infestation.

Assay [2] has as its system Plutella xylostella. Put plainly: Example B12: Plutella xylostella (Diamondback Moth), 96-well artificial diet. The note with it: 216 h, application rate of 500 ppm, eggs, 9 days after infestation. The protocol: Example B12: Plutella xylostella (Diamondback Moth)
96-well microtiter plates containing artificial diet were treated with aqueous test solutions, prepared from 10′000 ppm DMSO stock solutions, by a liquid handling robot. After drying, eggs (˜30 per well) were infested onto a netted lid which was suspended above the diet. The eggs hatch and L1 larvae move down to the diet. The samples were assessed for mortality 9 days after infestation.

On to `COC1(c2cc(C(=O)NC(C)c3nccnc3-c3ncccn3)cc(C(F)(F)F)c2)CC1` (stereo not drawn) [P47, 3-(1-methoxycyclopropyl)-N-[1-(3-pyrimidin-2-ylpyrazin-2-yl)ethyl]-5-(trifluoromethyl)benzamide], for which, in the assay with Chilo suppressalis, the percent control (mortality, anti-feedant effect or growth inhibition) at 200 ppm is no less than 80%. Besides, in the assay with Plutella xylostella [1], the percent control (mortality or growth inhibition) at 200 ppm was no less than 80%.

For the compound `CC(NC(=O)c1cc(C(F)(F)F)cc(C(C)(C)C#N)c1)c1nccnc1-c1ccccn1` (stereo not drawn) [P7, 3-(1-cyano-1-methyl-ethyl)-N-[1-[3-(2-pyridyl)pyrazin-2-yl]ethyl]-5-(trifluoromethyl) benzamide], the percent control (mortality, anti-feedant effect or growth inhibition) at 200 ppm in the assay on Spodoptera littoralis and in the assay with Chilo suppressalis was no less than 80% throughout. Also, the percent control (mortality or growth inhibition) at 200 ppm with Diabrotica balteata and with Plutella xylostella [1] was no less than 80% throughout.

Consider `CC(NC(=O)c1cc(C(F)(F)F)cc(C(C)(C)C#N)c1)c1nccnc1-c1ncc(C2CC2)cn1` (stereo not drawn) [P6, 3-(1-cyano-1-methyl-ethyl)-N-[1-[3-(5-cyclopropylpyrimidin-2-yl)pyrazin-2-yl]ethyl]-5-(trifluoromethyl) benzamide], for which the percent control (mortality, anti-feedant effect or growth inhibition) at 200 ppm in the assay with Spodoptera littoralis and with Chilo suppressalis was no less than 80% each time. Also, the percent control (mortality or growth inhibition) at 200 ppm in the assay with Diabrotica balteata and in the assay with Plutella xylostella [1] was no less than 80% throughout.

Regarding `CC(NC(=O)c1cc(C(F)(F)F)cc(C(F)(F)C2CC2)c1)c1nccnc1-c1ncc(Br)cn1` (stereo not drawn) [P53, N-[1-[3-(5-bromopyrimidin-2-yl)pyrazin-2-yl]ethyl]-3-[cyclopropyl(difluoro)methyl]-5-(trifluoromethyl)benzamide], the percent control (mortality, anti-feedant effect or growth inhibition) at 200 ppm in the assay with Spodoptera littoralis and in the assay with Chilo suppressalis was no less than 80% in each case. For the same compound, the percent control (mortality or growth inhibition) at 200 ppm in the assay on Diabrotica balteata and with Plutella xylostella [1] was no less than 80% throughout.

Take `Cc1cnc(-c2nccnc2C(C)NC(=O)c2cc(C3CC3)cc(C(F)(F)F)c2)nc1` (stereo not drawn) [P51, 3-cyclopropyl-N-[1-[3-(5-methylpyrimidin-2-yl)pyrazin-2-yl]ethyl]-5-(trifluoromethyl)benzamide]: the percent control (mortality, anti-feedant effect or growth inhibition) at 200 ppm in the assay on Spodoptera littoralis was no less than 80%. The percent control (mortality or growth inhibition) at 200 ppm in the assay with Plutella xylostella [1] is no less than 80%.

Consider `CC(NC(=O)c1cc(C(F)(F)F)cc(S(=O)(=O)C(F)(F)F)c1)c1nccnc1-c1ncc(Br)cn1` (stereo not drawn) [P57, N-[1-[3-(5-bromopyrimidin-2-yl)pyrazin-2-yl]ethyl]-3-(trifluoromethyl)-5-(trifluoromethylsulfonyl) benzamide], for which the percent control (mortality, anti-feedant effect or growth inhibition) at 200 ppm in the assay with Spodoptera littoralis and in the assay on Chilo suppressalis was no less than 80% each time. Further, the percent control (mortality or growth inhibition) at 200 ppm in the assay with Diabrotica balteata and with Plutella xylostella [1] was no less than 80% throughout.

For the compound `CC(NC(=O)c1cc(C(F)(F)F)cc(C(F)(F)C2CC2)c1)c1nccnc1-c1ccc(Cl)cn1` (stereo not drawn) [P4, N-[1-[3-(5-chloro-2-pyridyl)pyrazin-2-yl]ethyl]-3-[cyclopropyl(difluoro)methyl]-5-(trifluoromethyl) benzamide], the percent control (mortality, anti-feedant effect or growth inhibition) at 200 ppm in the assay with Spodoptera littoralis and in the assay with Chilo suppressalis was no less than 80% throughout. The percent control (mortality or growth inhibition) at 200 ppm in the assay with Plutella xylostella [1] is no less than 80%.

`Cc1cnc(-c2nccnc2C(C)NC(=O)c2cc(C(F)(F)F)cc(S(=O)(=O)C(F)(F)F)c2)nc1` (stereo not drawn) [P56, N-[1-[3-(5-methylpyrimidin-2-yl)pyrazin-2-yl]ethyl]-3-(trifluoromethyl)-5-(trifluoromethylsulfonyl) benzamide]: the percent control (mortality, anti-feedant effect or growth inhibition) at 200 ppm in the assay on Spodoptera littoralis and in the assay with Chilo suppressalis was no less than 80% throughout. In addition, the percent control (mortality or growth inhibition) at 200 ppm with Plutella xylostella [1] is no less than 80%.

Regarding `CC(NC(=O)c1cc(C2CC2)cc(C(F)(F)F)c1)c1nccnc1-c1ccc(Br)cn1` (stereo not drawn) [P29, N-[1-[3-(5-bromo-2-pyridyl)pyrazin-2-yl]ethyl]-3-cyclopropyl-5-(trifluoromethyl)benzamide], the percent control (mortality or growth inhibition) at 200 ppm with Plutella xylostella [1] was no less than 80%. Besides, the mortality at 500 ppm with Plutella xylostella [2] is no less than 80%.

`CC(NC(=O)c1cc(C(F)(F)F)cc(S(=O)(=O)C(F)(F)F)c1)c1nccnc1-c1ccc(Br)cn1` (stereo not drawn) [P14, N-[1-[3-(5-bromo-2-pyridyl)pyrazin-2-yl]ethyl]-3-(trifluoromethyl)-5-(trifluoromethylsulfonyl) benzamide] gave a mortality at 500 ppm with Plutella xylostella [2] of no less than 80%.

For the compound `CC(NC(=O)c1cc(C(F)(F)F)cc(C(C)(C)C#N)c1)c1nccnc1-c1ccc(F)cn1` (stereo not drawn) [P5, 3-(1-cyano-1-methyl-ethyl)-N-[1-[3-(5-fluoro-2-pyridyl)pyrazin-2-yl]ethyl]-5-(trifluoromethyl) benzamide], the percent control (mortality or growth inhibition) at 200 ppm with Plutella xylostella [1] was no less than 80%.

As to `CC(NC(=O)c1cc(C(F)(F)F)cc(C(C)(C)C#N)c1)c1nccnc1-c1ccc(Cl)cn1` (stereo not drawn) [P8, N-[1-[3-(5-chloro-2-pyridyl)pyrazin-2-yl]ethyl]-3-(1-cyano-1-methyl-ethyl)-5-(trifluoromethyl) benzamide], the percent control (mortality, anti-feedant effect or growth inhibition) at 200 ppm in the assay with Spodoptera littoralis and in the assay on Chilo suppressalis was no less than 80% in each case. Besides, the percent control (mortality or growth inhibition) at 200 ppm with Diabrotica balteata and in the assay on Plutella xylostella [1] was no less than 80% throughout.

`Cc1cnc(-c2nccnc2C(C)NC(=O)c2cc(C(F)(F)F)cc(C(F)(F)C3CC3)c2)nc1` (stereo not drawn) [P52, 3-[cyclopropyl (difluoro)methyl]-N-[1-[3-(5-methylpyrimidin-2-yl)pyrazin-2-yl]ethyl]-5-(trifluoromethyl)benzamide]: in the assay on Spodoptera littoralis, the percent control (mortality, anti-feedant effect or growth inhibition) at 200 ppm is no less than 80%. Besides, the percent control (mortality or growth inhibition) at 200 ppm in the assay on Plutella xylostella [1] is no less than 80%.

`Cc1cnc(-c2nccnc2C(C)NC(=O)c2cc(C(F)(F)F)cc(C3(C#N)CC3)c2)nc1` (stereo not drawn) [P54, 3-(1-cyanocyclopropyl)-N-[1-[3-(5-methylpyrimidin-2-yl)pyrazin-2-yl]ethyl]-5-(trifluoromethyl)benzamide]: the percent control (mortality, anti-feedant effect or growth inhibition) at 200 ppm with Spodoptera littoralis and in the assay with Chilo suppressalis was no less than 80% each time. Besides, in the assay with Plutella xylostella [1], the percent control (mortality or growth inhibition) at 200 ppm was no less than 80%.

As to `CC(NC(=O)c1cc(C(F)(F)F)cc(C(C)(C)C#N)c1)c1nccnc1-c1ncc(Br)cn1` (stereo not drawn) [P49, N-[1-[3-(5-bromopyrimidin-2-yl)pyrazin-2-yl]ethyl]-3-(1-cyano-1-methyl-ethyl)-5-(trifluoromethyl)benzamide], the percent control (mortality, anti-feedant effect or growth inhibition) at 200 ppm in the assay with Spodoptera littoralis and in the assay on Chilo suppressalis was no less than 80% throughout. Further, the percent control (mortality or growth inhibition) at 200 ppm with Diabrotica balteata and in the assay on Plutella xylostella [1] was no less than 80% each time.

On to `CC(NC(=O)c1cc(C(F)(F)F)cc(C(C)(C)C#N)c1)c1nccnc1-c1ccc(Br)cn1` (stereo not drawn) [P9, N-[1-[3-(5-bromo-2-pyridyl)pyrazin-2-yl]ethyl]-3-(1-cyano-1-methyl-ethyl)-5-(trifluoromethyl) benzamide], for which the percent control (mortality, anti-feedant effect or growth inhibition) at 200 ppm in the assay on Spodoptera littoralis and with Chilo suppressalis was no less than 80% throughout. The percent control (mortality or growth inhibition) at 200 ppm with Diabrotica balteata and in the assay with Plutella xylostella [1] was no less than 80% in each case.

`CC(NC(=O)c1cc(C(F)(F)F)cc(S(=O)(=O)C(F)(F)F)c1)c1nccnc1-c1ccc(Cl)cn1` (stereo not drawn) [P15, N-[1-[3-(5-chloro-2-pyridyl)pyrazin-2-yl]ethyl]-3-(trifluoromethyl)-5-(trifluoromethylsulfonyl) benzamide] yielded a mortality at 500 ppm with Plutella xylostella [2] of no less than 80%.

Consider `CC(NC(=O)c1cc(C2CC2)cc(C(F)(F)F)c1)c1nccnc1-c1ncc(Br)cn1` (stereo not drawn) [P58, N-[1-[3-(5-bromopyrimidin-2-yl)pyrazin-2-yl]ethyl]-3-cyclopropyl-5-(trifluoromethyl) benzamide], for which the percent control (mortality, anti-feedant effect or growth inhibition) at 200 ppm in the assay with Spodoptera littoralis and in the assay with Chilo suppressalis was no less than 80% each time. Further, the percent control (mortality or growth inhibition) at 200 ppm in the assay on Diabrotica balteata and with Plutella xylostella [1] was no less than 80% in each case.

In the case of `CC(NC(=O)c1cc(OCC2CC2)nc(C(F)(F)F)c1)c1nccnc1-c1ncccn1` (stereo not drawn) [P43, 2-(cyclopropylmethoxy)-N-[1-(3-pyrimidin-2-ylpyrazin-2-yl)ethyl]-6-(trifluoromethyl)pyridine-4-carboxamide], the percent control (mortality, anti-feedant effect or growth inhibition) at 200 ppm in the assay on Chilo suppressalis is no less than 80%. Further, the percent control (mortality or growth inhibition) at 200 ppm in the assay on Plutella xylostella [1] was no less than 80%.

By mortality is commonly meant the percentage killed. Read a high mortality as fewer survivors.

The record behind these values is patent publication US12527325B2, “Pesticidally active diazine-amide compounds” (SYNGENTA CROP PROTECTION AG, priority 2019, dated 2026).
